Measured values reported in DBAASP.
In brackets after ≈: the same amount, converted by molar mass. Several values for one entry are separate records, joined by “and”; a condition that tells them apart may be missing. Equal values may be shown once.

Key:
Test in all cases: ≥ marks a high value that may be exact or a test limit, other limits are often not marked, values filed in µg/mL are converted to µM
Streptococcus pyogenes = test system: Streptococcus pyogenes
Salmonella typhimurium = test system: Salmonella typhimurium
[1] = test system: Staphylococcus epidermidis
Escherichia coli = test system: Escherichia coli
Bacillus subtilis = test system: Bacillus subtilis
Pseudomonas aeruginosa = test system: Pseudomonas aeruginosa
Proteus vulgaris = test system: Proteus vulgaris
[2] = test system: Bacillus subtilis ATCC 6633
Escherichia coli W160-37 = test system: Escherichia coli W160-37
[3] = test system: Enterococcus faecium ATCC 19434
[4] = test system: Enterococcus faecalis ATCC 19433
[5] = test system: Proteus mirabilis CCUG 26767
[6] = test system: Enterococcus faecium NTCC 12697
[7] = test system: Klebsiella pneumoniae ATCC 13883
[8] = test system: Pseudomonas aeruginosa ATCC 9027
[9] = test system: Staphylococcus aureus ATCC 8530
[10] = test system: Staphylococcus aureus NCTC 10788
[11] = test system: Escherichia coli ATCC 8739
[12] = test system: Escherichia coli ATCC 25922
[13] = test system: Pseudomonas aeruginosa ATCC 27853
[14] = test system: Salmonella enterica subsp. enterica serovar Typhimurium LT2
[15] = test system: Klebsiella pneumoniae ATCC 43816
[16] = test system: Staphylococcus aureus NCTC 12493
[17] = test system: Staphylococcus aureus ATCC 29213
[18] = test system: Staphylococcus aureus ATCC 2592
[19] = test system: Acinetobacter calcoaceticus
[20] = test system: Candida albicans ATCC 2002
Bacillus pumilus = test system: Bacillus pumilus
Bacillus cereus = test system: Bacillus cereus
Shigella dysenteriae = test system: Shigella dysenteriae
[21] = test system: Enterococcus faecium ATCC 700221
[22] = test system: Candida albicans ATCC 200955
[23] = test system: Staphylococcus aureus ATCC 25923
[24] = test system: Staphylococcus aureus ATCC 33591
[25] = test system: Candida parapsilosis Z150/119/IDE99
Bacillus subtilis 168 = test system: Bacillus subtilis 168
Escherichia coli B = test system: Escherichia coli B
Staphylococcus aureus = test system: Staphylococcus aureus
Candida krusei CK802/97 = test system: Candida krusei CK802/97
[26] = test system: Candida glabrata CG196/98IDE
[27] = test system: Escherichia coli IFO 3301
[28] = test system: Bacillus subtilis IFO 3336

`CC[C@H](C)[C@H](NC(=O)[C@H](Cc1ccc(O)cc1)NC(=O)[C@@H](NC(=O)[C@@H]1CCCN1C(=O)[C@H](CCCN=C(N)N)NC(=O)[C@H](CC(N)=O)NC(=O)[C@H](CC(N)=O)NC(=O)CNC(=O)[C@@H]1CCCN1C(=O)[C@H](CCC(=O)O)NC(=O)[C@H](C)NC(=O)[C@H](CCC(=O)O)NC(=O)[C@@H]1CCCN1C(=O)[C@H](CCC(=O)O)NC(=O)[C@H](C)NC(=O)[C@H](CCC(=O)O)NC(=O)[C@H](CCCN=C(N)N)NC(=O)[C@@H](N)CCCN=C(N)N)C(C)C)C(=O)N1CCC[C@H]1C(=O)N[C@@H](CCC(N)=O)C(=O)N1CCC[C@H]1C(=O)N[C@@H](CCCN=C(N)N)C(=O)N1CCC[C@H]1C(=O)N1CCC[C@H]1C(=O)N[C@@H](Cc1cnc[nH]1)C(=O)N1CCC[C@H]1C(=O)N[C@@H](CCCN=C(N)N)C(=O)N[C@@H](CC(C)C)C(=O)O` [RREAEPEAEPGNNRPVYIPQPRPPHPRL] showed an MIC (Streptococcus pyogenes) of at least 64 µM, an MIC (Salmonella typhimurium) of 2 µM (≈ 6.55 µg/mL) and an MIC [1] of at least 64 µM. It also gave an MIC (Escherichia coli) of 64 µM (≈ 210 µg/mL), an MIC (Bacillus subtilis) of at least 64 µM and an MIC (Pseudomonas aeruginosa) of 64 µM (≈ 210 µg/mL). The MIC (Proteus vulgaris) was at least 64 µM.

`CC[C@H](C)[C@H](NC(=O)[C@H](CC(C)C)NC(=O)[C@@H]1CCCN1C(=O)[C@H](CC(C)C)NC(=O)[C@@H](N)Cc1ccccc1)C(=O)N[C@@H](CC(C)C)C(=O)N[C@@H](CCCN=C(N)N)C(=O)N[C@@H](CCCCN)C(=O)N[C@H](C(=O)N[C@H](C(=O)N[C@H](C(=O)N[C@@H](C)C(=O)N[C@@H](CC(C)C)C(N)=O)[C@@H](C)O)C(C)C)[C@@H](C)CC` [FLPLILRKIVTAL] gave an MIC [2] of at least 200 µM, an MIC (Escherichia coli W160-37) of at least 100 µM and an MIC [3] of at least 50.1 µM. The MIC [4] was at least 100 µM, the MIC [5] was at least 401 µM and the MIC [6] was 16 µM (≈ 23.9 µg/mL). For the same compound, the MIC [7] was at least 401 µM, the MIC [8] was 128 µM (≈ 191 µg/mL) and the MIC [9] was at least 200 µM. It also gave an MIC [10] of 2 µM (≈ 2.99 µg/mL), an MIC [11] of at least 32 µM and an MIC (Bacillus subtilis) of at least 50.1 µM. It also gave an MIC [12] of 200 µM (≈ 300 µg/mL), an MIC [13] of over 401 µM and an MIC [14] of at least 200 µM. The MIC [15] was at least 64 µM, the MIC [16] was 4 µM (≈ 5.98 µg/mL) and the MIC [17] was 200 µM (≈ 300 µg/mL).

`CC[C@H](C)[C@H](NC(=O)[C@@H]1CCCN1C(=O)[C@H](Cc1ccccc1)NC(=O)[C@@H](N)Cc1ccccc1)C(=O)N[C@H](C(=O)NCC(=O)N[C@@H](CCCCN)C(=O)N[C@@H](CC(C)C)C(=O)N[C@@H](CC(C)C)C(=O)N[C@@H](Cc1ccccc1)C(=O)NCC(=O)N[C@@H](CC(C)C)C(=O)N[C@@H](Cc1ccccc1)C(=O)NCC(=O)N[C@@H](CC(C)C)C(=O)N[C@@H](CC(C)C)C(N)=O)C(C)C` [FFPIVGKLLFGLFGLL] showed an MIC [18] of 1.4 µM (≈ 2.5 µg/mL), an MIC [19] of 16.8 µM (≈ 30 µg/mL) and an MIC [20] of 0.702 µM (≈ 1.25 µg/mL). The MIC (Bacillus pumilus) was 1.4 µM (≈ 2.5 µg/mL), the MIC [12] was 2.81 µM (≈ 5 µg/mL) and the MIC (Pseudomonas aeruginosa) was 4.21 µM (≈ 7.5 µg/mL). The MIC (Bacillus cereus) was 16.8 µM (≈ 30 µg/mL) and the MIC (Shigella dysenteriae) was 5.61 µM (≈ 9.99 µg/mL).

Compound `CC[C@H](C)[C@H](NC(=O)[C@H](Cc1c[nH]c2ccccc12)NC(=O)[C@H](CCCCN)NC(=O)[C@H](CC(C)C)NC(=O)[C@H](CC(C)C)NC(=O)CN)C(=O)N[C@@H](CCCCN)C(=O)N[C@H](C(=O)N[C@@H](CC(C)C)C(=O)N[C@@H](CC(C)C)C(N)=O)[C@@H](C)O` [GLLKWIKTLL] has an MIC [21] of 9.5 µM (≈ 11.2 µg/mL), an MIC [22] of 28.4 µM (≈ 33.6 µg/mL) and an MIC [13] of 28.4 µM (≈ 33.6 µg/mL). The MIC [23] was 1.69 µM (≈ 2 µg/mL) and the MIC [24] was 9.5 µM (≈ 11.2 µg/mL).

Compound `CC[C@H](C)[C@H](NC(=O)[C@@H]1CCCN1C(=O)[C@H](CC(C)C)NC(=O)[C@@H](N)Cc1ccccc1)C(=O)N[C@H](C(=O)NCC(=O)N[C@@H](CCCCN)C(=O)N[C@@H](CC(C)C)C(=O)N[C@@H](CC(C)C)C(=O)N[C@@H](CO)C(=O)NCC(=O)N[C@@H](CC(C)C)C(=O)N[C@@H](CO)C(=O)NCC(=O)N[C@@H](CC(C)C)C(=O)N[C@@H](CO)C(N)=O)C(C)C` [FLPIVGKLLSGLSGLS] has an MIC [18] of 1.56 µM (≈ 2.5 µg/mL), an MIC [19] of at least 37.5 µM and an MIC [20] of 1.56 µM (≈ 2.5 µg/mL). It also gave an MIC (Bacillus pumilus) of 4.68 µM (≈ 7.5 µg/mL), an MIC [12] of 3.12 µM (≈ 5 µg/mL) and an MIC (Pseudomonas aeruginosa) of 1.56 µM (≈ 2.5 µg/mL). It also gave an MIC (Bacillus cereus) of at least 46.8 µM and an MIC (Shigella dysenteriae) of 12.5 µM (≈ 20 µg/mL).

In the case of `CC[C@H](C)[C@H](NC(=O)[C@H](CC(C)C)NC(=O)[C@H](Cc1cnc[nH]1)NC(=O)CNC(=O)[C@H](CC(C)C)NC(=O)[C@@H](NC(=O)[C@H](CCCCN)NC(=O)[C@H](CCCCN)NC(=O)[C@H](Cc1c[nH]c2ccccc12)NC(=O)[C@H](CCSC)NC(=O)CN)[C@@H](C)CC)C(=O)N[C@@H](CCCN=C(N)N)C(N)=O` [GMWKKILGHLIR], the MIC [25] is reported as 30 µM and 15 µM, the MIC (Bacillus subtilis 168) is reported as 0.9 µM (≈ 1.31 µg/mL) and the MIC (Escherichia coli B) is reported as 1.8 µM (≈ 2.61 µg/mL). For the same compound, the MIC (Pseudomonas aeruginosa) was 16.3 µM (≈ 23.6 µg/mL), the MIC (Staphylococcus aureus) was 8.4 µM (≈ 12.2 µg/mL) and the MIC (Candida krusei CK802/97) was 30 µM and 15 µM and 20 µM. For the same compound, the MIC [26] was ≥ 40 µM and 25 µM and 30 µM.

In the case of `NC(N)=NCCC[C@H](NC(=O)[C@H](Cc1cnc[nH]1)NC(=O)[C@@H](N)CCCN=C(N)N)C(=O)N[C@@H](Cc1cnc[nH]1)C(=O)O` [RHRH], the MIC [27] is reported as at least 827 µM and the MIC [28] is reported as at least 827 µM.

`NC(N)=NCCC[C@H](NC(=O)[C@H](Cc1cnc[nH]1)NC(=O)[C@H](CCCN=C(N)N)NC(=O)[C@H](Cc1cnc[nH]1)NC(=O)[C@H](CCCN=C(N)N)NC(=O)[C@H](Cc1cnc[nH]1)NC(=O)[C@H](CCCN=C(N)N)NC(=O)[C@H](Cc1cnc[nH]1)NC(=O)[C@H](CCCN=C(N)N)NC(=O)[C@H](Cc1cnc[nH]1)NC(=O)[C@@H](N)CCCN=C(N)N)C(=O)N[C@@H](Cc1cnc[nH]1)C(=O)O` [RHRHRHRHRHRH] showed an MIC [27] of 5.62 µM (≈ 10 µg/mL) and an MIC [28] of 5.62 µM (≈ 10 µg/mL).
